Reference: ChEMBL document CHEMBL1201862, “PubChem BioAssay data set” (2004)
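Five compound concentrations were applied to cells in 96-well plates for 48 hours; endpoints were derived by simple linear interpolation of the resulting dose-response curve. GI50: concentration for 50% inhibition of growth.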 The source made the active and inactive calls. No stated cut-off is given here; in the data, active = GI50 up to about 1.1 µM and inactive = higher.

Assays:
Test in all cases: growth of human tumour cells (NCI), 48 h
SK-MEL-28 = tested on: SK-MEL-28
UACC-62 = tested on: UACC-62
HCC 2998 = tested on: HCC 2998
PC-3 = tested on: PC-3
MDA-N = tested on: MDA-N
UO-31 = tested on: UO-31
M14 = tested on: M14
CAKI-1 = tested on: CAKI-1
KM12 = tested on: KM12
BT-549 = tested on: BT-549
U-251 = tested on: U-251
MCF7 = tested on: MCF7
TK-10 = tested on: TK-10
Malme-3M = tested on: Malme-3M
OVCAR-5 = tested on: OVCAR-5
ACHN = tested on: ACHN
SK-OV-3 = tested on: SK-OV-3
HOP-92 = tested on: HOP-92
SR = tested on: SR
SNB-75 = tested on: SNB-75

Measured: GI50

O=C(O)CC(Cc1ccccc1)C(=O)O (stereo not drawn)
inactive: SK-MEL-28 > 100 µM | UACC-62 > 100 µM | HCC 2998 > 100 µM | PC-3 > 100 µM | MDA-N 56.5 µM | UO-31 > 100 µM | M14 > 100 µM | CAKI-1 > 100 µM | KM12 > 100 µM | BT-549 > 100 µM | U-251 > 100 µM | MCF7 > 100 µM | TK-10 > 100 µM | Malme-3M > 100 µM | OVCAR-5 > 100 µM | ACHN > 100 µM | SK-OV-3 > 100 µM

Oc1nnc(-c2ccc(F)cc2)cc1-c1ccccc1
inactive: SK-MEL-28 83.9 µM | HOP-92 > 100 µM | UACC-62 76.2 µM | HCC 2998 78.5 µM | PC-3 91.4 µM | M14 > 100 µM | SR > 100 µM | CAKI-1 69.5 µM | KM12 > 100 µM | U-251 35.8 µM | MCF7 71.4 µM | TK-10 71.4 µM | Malme-3M 97.5 µM | OVCAR-5 > 100 µM | ACHN 57.9 µM | SK-OV-3 42.6 µM

COc1ccc(CC(C)NCC(O)c2ccc(O)c(NC=O)c2)cc1 (stereo not drawn)
inactive: SK-MEL-28 > 100 µM | UACC-62 > 100 µM | PC-3 > 100 µM | UO-31 > 100 µM | M14 > 100 µM | SR > 100 µM | CAKI-1 42.2 µM | KM12 > 100 µM | BT-549 > 100 µM | U-251 > 100 µM | MCF7 > 100 µM | TK-10 > 100 µM | Malme-3M > 100 µM | SNB-75 > 100 µM | OVCAR-5 > 100 µM | ACHN > 100 µM | SK-OV-3 > 100 µM

Clc1ccc(Cc2nc3cc4ccccc4cc3[nH]2)cc1Cl
inactive: SK-MEL-28 12.6 µM | HOP-92 11.7 µM | UACC-62 14.2 µM | HCC 2998 18.5 µM | PC-3 13 µM | UO-31 14 µM | M14 26.2 µM | SR 7.6 µM | CAKI-1 18.3 µM | KM12 16.4 µM | BT-549 16 µM | U-251 15.5 µM | MCF7 16.2 µM | TK-10 19.4 µM | Malme-3M 16 µM | SNB-75 17.3 µM | OVCAR-5 32.5 µM | ACHN 30.8 µM

Cc1ccc(N(C(=O)CC(=O)N2N=C(c3ccccc3)C(/N=N/c3ccc([N+](=O)[O-])cc3)C2=O)C(=O)c2ccc(Cl)cc2)cc1 (stereo not drawn)
inactive: SK-MEL-28 48.5 µM | HOP-92 22.5 µM | UACC-62 30.3 µM | HCC 2998 51.2 µM | UO-31 16.3 µM | M14 5.69 µM | SR 1.66 µM | CAKI-1 28.4 µM | KM12 20.4 µM | U-251 6.27 µM | TK-10 10.9 µM | Malme-3M > 100 µM | SNB-75 10.4 µM | OVCAR-5 20.5 µM | ACHN 28.4 µM | SK-OV-3 12.2 µM

c1cc2c(cc1[C@@H]1OC[C@@H]3[C@H]1CO[C@H]3c1ccc3c(c1)OCO3)OCO2
inactive: SK-MEL-28 > 100 µM | HOP-92 69.3 µM | UACC-62 > 100 µM | HCC 2998 > 100 µM | PC-3 51.4 µM | MDA-N 80.9 µM | UO-31 65.8 µM | M14 62.8 µM | CAKI-1 30.1 µM | KM12 23.1 µM | U-251 60.4 µM | MCF7 34.9 µM | TK-10 30.3 µM | Malme-3M 53.3 µM | SNB-75 > 100 µM | OVCAR-5 > 100 µM | ACHN > 100 µM | SK-OV-3 > 100 µM

COc1ccc(C2SCC(=O)N2c2ccc(-n3c(-c4ccccc4)nc4ccccc4c3=O)cc2)cc1 (stereo not drawn)
inactive: SK-MEL-28 > 100 µM | HOP-92 46.7 µM | UACC-62 17.8 µM | HCC 2998 60.3 µM | PC-3 42.1 µM | UO-31 25.3 µM | M14 > 100 µM | SR 45 µM | CAKI-1 > 100 µM | KM12 90.8 µM | BT-549 > 100 µM | U-251 > 100 µM | MCF7 98.4 µM | TK-10 > 100 µM | SNB-75 15.8 µM | OVCAR-5 > 100 µM | ACHN > 100 µM | SK-OV-3 73.3 µM

O=C(O)c1ccc(-c2nc3cc(Cl)ccc3[nH]2)cc1
inactive: HOP-92 > 100 µM | HCC 2998 > 100 µM | PC-3 > 100 µM | UO-31 > 100 µM | M14 > 100 µM | SR > 100 µM | CAKI-1 > 100 µM | KM12 > 100 µM | BT-549 > 100 µM | U-251 > 100 µM | MCF7 > 100 µM | SNB-75 > 100 µM | SK-OV-3 > 100 µM
